# Oligonucleotides are written 5' to 3', each unit as a sugar letter and its base; * is a phosphorothioate linkage, no mark a phosphodiester; rarer units and linkages stand in square brackets, end groups in braces. Plain capitals give the bases only. Bridges are numbered along the chain shown (N, C = ends). [ ]: non-standard residue; d: D form. 2Nal = N[C@@H](Cc1ccc2ccccc2c1)C(=O)O; Igl = N[C@H](C(=O)O)C1Cc2ccccc2C1; m = 2'-O-methyl; f = 2'-fluoro
# Experiments:
# [1] = tested on: factor B mRNA transcript; test: Knockdown of factor B expression in HepG2 cells using siRNAs, dose response experiments (DRC); format: cell-based, human; settings: for Max Factor B inhibition (%): dose response up to 100 nM
# Method: HepG2 cells were obtained from ATCC (ATCC in partnership with LGC Standards, Wesel, Germany, cat. #ATCC-HB-8065) and cultured in MEM Eagle (#M2279, Sigma-Aldrich, Germany), supplemented to contain 10% fetal calf serum (#1248D, Biochrom GmbH, Berlin, Germany), 1×non-essential amino acids (#K0293; Biochrom, Berlin, Germany), 4 mM L-Glutamine (#K0283, Biochrom, Berlin, Germany) and 100 U/ml Penicillin/100 μg/ml Streptomycin (#A2213, Biochrom GmbH, Berlin, Germany) at 37° C. in an atmosphere with 5% CO2 in a humidified incubator.
# 24 siRNAs were designed and synthesized to target different regions of the factor B mRNA transcript. In this experiment, the sense strand of each siRNA contained 18 nucleotides identical to a target region sequence on the factor B transcript (SEQ ID NO: 75), and one additional adenine nucleotide at the 3′ end. Additionally, in this experiment, the antisense strand contained 18 nucleotides complementary to a target region sequence on the factor B transcript (SEQ ID NO: 75), and one additional uracil nucleotide at the 5′ end, and 2 additional uracil nucleotides at the 3′ end.
# Transfection of siRNA was carried out with Lipofectamine RNAiMax (Invitrogen/Life Technologies, Karlsruhe, Germany) according to manufacturer's instructions for reverse transfection.
# Each siRNA was tested using dose response experiments (DRC) in HepG2 cells. Dose-response experiments were done with siRNA in 10 concentrations transfected in quadruplicates, starting at 100 nM in 6-fold dilutions steps down to ˜10 fM. Mock transfected cells served as negative controls.
# For each well, the target mRNA level was normalized to the respective GAPDH mRNA level. The activity of a given siRNA was expressed as percent mRNA concentration of the respective target (normalized to GAPDH mRNA) in treated cells, relative to the target mRNA concentration (normalized to GAPDH mRNA) averaged across mock transfected wells (DRCs).
# Dose response experiments described above were repeated in a subset of siRNAs shown in Table 9, specifically siRNAs 2, 7, 8, and 3.
# [2] = tested on: complement activation; settings: relative to compstatin amidated at the C-terminus; based on published data (WO2004/026328, WO2007044668, Mallik 2005, Katragadda 2006); cited from earlier work
# [3] = reverse transfection, 10 concentrations from 100 nM in 6-fold dilutions, factor B mRNA normalized to GAPDH, relative to mock, Table 8
# [4] = additional (repeated) dose response experiments, Table 10
Substance,Max Factor B inhibition (%) ([1]; Table 8),"IC20 [1, 3] [nM]","IC50 [1, 3] [nM]","IC80 [1, 3] [nM]",Activity over compstatin [2] [xmore],"IC20 [1, 4] [nM]","IC50 [1, 4] [nM]","Max KD [%] [1, 4] [%]","IC80 [1, 4] [nM]"
4 (sense mC*mU*fGmCmUmAfUfGfAmCmGfGmUmUmAmCfAmCmA; antisense mU*fG*mUmGmUmAmAmCmCmGmUmCmAfUmAmGmCmAmG*mU*mU; siRNA) [compound 4],88.29,0.05,0.48,10.9,–,–,–,–,–
18 (sense mC*mA*fGmCmGmAfUfCfUmGmUfGmAmCmAmAfCmGmA; antisense mU*fC*mGmUmUmGmUmCmAmCmAmGmAfUmCmGmCmUmG*mU*mU; siRNA) [compound 18],75.45,0.3,2.02,–,–,–,–,–,–
Ac-ICVVQDWGHHRCT-CONH2 [Ac-compstatin],–,–,–,–,3,–,–,–,–
Ac-ICV(2-Igl)QDWGAHRCT-CONH2 (Ac-ICV[Igl]QDWGAHRCT-NH2; not fully specified (bridges); printed as Ac-ICV(2-Igl)QDWGAHRCT-CONH2; cysteine pairing not given here) [Ac-V42Igl/H9A],–,–,–,–,39,–,–,–,–
20 (sense mU*mU*fUmAmUmGfAfCfUmAmUfGmAmCmGmUfUmGmA; antisense mU*fC*mAmAmCmGmUmCmAmUmAmGmUfCmAmUmAmAmA*mU*mU; siRNA) [compound 20],74.02,1.1,3.52,–,–,–,–,–,–
10 (sense mC*mU*fCmGmGmUfUfCfCmUmUfUmGmUmAmCfUmGmA; antisense mU*fC*mAmGmUmAmCmAmAmAmGmGmAfAmCmCmGmAmG*mU*mU; siRNA) [compound 10],81.72,0.43,1.7,31.6,–,–,–,–,–
5 (sense mG*mG*fGmGmAmGfUfAfGmUmGfGmAmUmGmUfCmUmA; antisense mU*fA*mGmAmCmAmUmCmCmAmCmUmAfCmUmCmCmCmC*mU*mU; siRNA) [compound 5],86.90,0.1,0.67,9.65,–,–,–,–,–
9 (sense mC*mU*fAmUmGmAfCfGfUmUmGfCmCmCmUmGfAmUmA; antisense mU*fA*mUmCmAmGmGmGmCmAmAmCmGfUmCmAmUmAmG*mU*mU; siRNA) [compound 9],82.07,0.01,0.27,142,–,–,–,–,–
Ac-ICV(2-Nal)QDWGAHRCT-COOH (Ac-ICV[2Nal]QDWGAHRCT-OH; not fully specified (bridges); printed as Ac-ICV(2-Nal)QDWGAHRCT-COOH; cysteine pairing not given here) [Ac V4(2-Nal)/H9A-OH],–,–,–,–,38,–,–,–,–
Ac-ICVWQDWGAHRCdT-COOH [Ac-V4W/H9A/T13dT-OH],–,–,–,–,55,–,–,–,–
23 (sense mU*mU*fUmUmAmUfGfAfCmUmAfUmGmAmCmGfUmUmA; antisense mU*fA*mAmCmGmUmCmAmUmAmGmUmCfAmUmAmAmAmA*mU*mU; siRNA) [compound 23],68.74,0.22,2.44,–,–,–,–,–,–
24 (sense mU*mU*fCmCmGmAfCfUfUmCmUfCmCmAmAmGfAmGmA; antisense mU*fC*mUmCmUmUmGmGmAmGmAmAmGfUmCmGmGmAmA*mU*mU; siRNA) [compound 24],61.56,0.51,2.76,–,–,–,–,–,–
6 (sense mU*mG*fUmGmGmUfGfUfCmUmGfAmGmUmAmCfUmUmA; antisense mU*fA*mAmGmUmAmCmUmCmAmGmAmCfAmCmCmAmCmA*mU*mU; siRNA) [compound 6],85.34,0.03,0.37,16.1,–,–,–,–,–
17 (sense mC*mU*fCmAmCmGfCfCfCmGmAfGmAmCmUmUfUmCmA; antisense mU*fG*mAmAmAmGmUmCmUmCmGmGmGfCmGmUmGmAmG*mU*mU; siRNA) [compound 17],75.50,0.07,0.85,–,–,–,–,–,–
Ac-ICVWQDWGAHRCT-CONH2 (Ac-ICVWQDWGAHRCT-NH2; disulfide 2-12 (inferred)) [Ac-V4W/H9A],–,–,–,–,45,–,–,–,–
8 (sense mA*mA*fGmUmGmUfCfUfAmGmUfCmAmAmCmUfUmAmA; antisense mU*fU*mAmAmGmUmUmGmAmCmUmAmGfAmCmAmCmUmU*mU*mU; siRNA) [compound 8],82.24,–,0.16,717,–,0.0889,0.271,76.2,–
11 (sense mA*mC*fCmAmUmAfGfAfAmGmGfAmGmUmCmGfAmUmA; antisense mU*fA*mUmCmGmAmCmUmCmCmUmUmCfUmAmUmGmGmU*mU*mU; siRNA) [compound 11],81.08,0.01,0.26,2350,–,–,–,–,–
16 (sense mA*mA*fUmGmCmAfGfAfCmUmGfGmGmUmCmAfCmGmA; antisense mU*fC*mGmUmGmAmCmCmCmAmGmUmCfUmGmCmAmUmU*mU*mU; siRNA) [compound 16],77.05,0.01,0.3,–,–,–,–,–,–
1 (sense mC*mC*fUmAmCmUfAfCfAmAmUfGmUmGmAmGfUmGmA; antisense mU*fC*mAmCmUmCmAmCmAmUmUmGmUfAmGmUmAmGmG*mU*mU; siRNA) [compound 1],91.04,0.03,0.54,19.8,–,–,–,–,–
21 (sense mC*mC*fUmUmGmAfUfAfGmUmUfCmAmCmAmAfGmAmA; antisense mU*fU*mCmUmUmGmUmGmAmAmCmUmAfUmCmAmAmGmG*mU*mU; siRNA) [compound 21],72.43,0.12,1.63,–,–,–,–,–,–
12 (sense mG*mG*fAmUmUmAfUfCfUmGmGfAmUmGmUmCfUmAmA; antisense mU*fU*mAmGmAmCmAmUmCmCmAmGmAfUmAmAmUmCmC*mU*mU; siRNA) [compound 12],80.54,0.13,0.89,183,–,–,–,–,–
3 (sense mU*mU*fCmUmGmGfCfUfUmCmUfAmCmCmCmGfUmAmA; antisense mU*fU*mAmCmGmGmGmUmAmGmAmAmGfCmCmAmGmAmA*mU*mU; siRNA) [compound 3],89.76,0.02,0.29,12,–,0.0722,0.204,87,0.886
19 (sense mC*mU*fAmCmCmAfCfUfUmGmCfCmAmGmCmAfAmCmA; antisense mU*fG*mUmUmGmCmUmGmGmCmAmAmGfUmGmGmUmAmG*mU*mU; siRNA) [compound 19],74.03,0.16,1.12,–,–,–,–,–,–
22 (sense mC*mU*fCmAmAmGfAfGfGmUmGfGmCmCmGmAfAmGmA; antisense mU*fC*mUmUmCmGmGmCmCmAmCmCmUfCmUmUmGmAmG*mU*mU; siRNA) [compound 22],72.01,0.32,2.09,–,–,–,–,–,–
13 (sense mA*mC*fGmUmUmGfCfCfCmUmGfAmUmCmAmAfGmCmA; antisense mU*fG*mCmUmUmGmAmUmCmAmGmGmGfCmAmAmCmGmU*mU*mU; siRNA) [compound 13],80.41,0.06,0.69,1340,–,–,–,–,–
2 (sense mC*mU*fUmCmUmGfGfCfUmUmCfUmAmCmCmCfGmUmA; antisense mU*fA*mCmGmGmGmUmAmGmAmAmGmCfCmAmGmAmAmG*mU*mU; siRNA) [compound 2],90.18,–,–,7.07,–,0.021,0.0887,83.5,0.865
15 (sense mC*mC*fGmAmUmUfAfCfCmAmCfAmAmGmCmAfAmCmA; antisense mU*fG*mUmUmGmCmUmUmGmUmGmGmUfAmAmUmCmGmG*mU*mU; siRNA) [compound 15],78.63,1.7,6.31,–,–,–,–,–,–
14 (sense mG*mG*fAmGmCmCfAfAfAmAmAfGmUmGmUmCfUmAmA; antisense mU*fU*mAmGmAmCmAmCmUmUmUmUmUfGmGmCmUmCmC*mU*mU; siRNA) [compound 14],79.20,0.22,1.3,–,–,–,–,–,–
7 (sense mU*mA*fCmGmUmGfUfGfUmCmCfUmUmCmUmGfGmCmA; antisense mU*fG*mCmCmAmGmAmAmGmGmAmCmAfCmAmCmGmUmA*mU*mU; siRNA) [compound 7],82.44,–,0.02,670,–,0.026,0.103,83.5,0.868
